Measurements from paper PMC6692352, “DF2726A, a new IL-8 signalling inhibitor, is able to counteract chemotherapy-induced neuropathic pain” (Scientific Reports, 2019).
Entries after “also recorded” stand apart in the source; their conditions may differ.

Experiments:
IENFs (PGP9.5) = experiment: Oxaliplatin-induced loss of IENFs, PGP9.5 immunofluorescence of paw sections; assay type: in vivo, male Wistar rats; conditions: 30 mg/kg os, rat paw sections
Protocol: (§1) Animals were sacrificed and a biopsy (3 mm) was taken from pad of the right hind paw. Biopsies were immediately placed in Zamboni’s fixative, where they were left at 4 °C. Tissues were then transferred to 20% sucrose for at least 24 h and used for immunohistochemistry analysis. Specimens were frozen in Optimal Cutting Temperature compound (OCT, Sakura Finetek Inc, CA, USA) and sliced into 20 μm thick serial coronal sections by cryostat AMES LAB-TEK (Westmont, Illinois, USA). […]
(§2) Five slices were examined for each animal. For each slide, 4 fields were counted. For quantitative evaluation of IL-8/CINC-1 (the homolog of IL-8 in rat) and […], photomicrographs for each condition were analysed by ImageJ software (National Institutes of Health, Bethesda, MD, USA) as previously described. […] The signal was first measured on the tissue in an area devoid of signal at visual inspection and assumed as background; the threshold was then set at 1.5 times the background and the surface area and mean grey intensity were measured for all areas above the threshold. […]

Metabolic stability, rat = assay type: in vitro ADME; conditions: Test conc: 2.5 µM
From the text: (§3) Table 1 Physicochemical and in Vitro ADME Properties of DF2726A. | column: DF2726A

acetylated α-tubulin [1] = experiment: Acetylated α-tubulin immunofluorescence of nerve fibres in paw sections of oxaliplatin rats; assay type: in vivo, male Wistar rats; conditions: 30 mg/kg os, rat paw sections
Protocol: Animals were sacrificed and a biopsy (3 mm) was taken from pad of the right hind paw. Biopsies were immediately placed in Zamboni’s fixative, where they were left at 4 °C. Tissues were then transferred to 20% sucrose for at least 24 h and used for immunohistochemistry analysis. Specimens were frozen in Optimal Cutting Temperature compound (OCT, Sakura Finetek Inc, CA, USA) and sliced into 20 μm thick serial coronal sections by cryostat AMES LAB-TEK (Westmont, Illinois, USA).
In brief, sections were blocked with phosphate buffer saline (PBS) containing 10% (Bovine Serum Albumin) and 0.3% Tween-20, for 1 h at RT and incubated, overnight at 4 °C, with the primary antibodies: IL-8 (mouse, 1:25, R&D Systems Inc. Minneapolis, MN, USA), PGP9.5 (rabbit, 1:1000, AbD Serotec, NC, USA), acetylated alpha tubulin (mouse, 1:250, Abcam Cambridge, MA, USA) and collagen IV (goat, 1:25, Southern Biotech, Birmingham, AL, USA). Sections were then rinsed in PBS several times before incubation for 2 h at RT with secondary antibodies, donkey AlexaFluor 488 anti-rabbit or donkey AlexaFluor 633 (1:2000), goat anti-mouse conjugated with Alexafluor 488 (1:2000; Life Technologies, Camarillo, CA, USA). […]

CYP 2C19 = CYP 2C19 (Homo sapiens, UniProt P33261); experiment: CYP inhibition 2C19; assay type: in vitro ADME
From the text: as §3

Metabolic stability, dog = assay type: in vitro ADME; conditions: Test conc: 2.5 µM
From the text: as §3

acetylated α-tubulin [2] = experiment: Acetylated α-tubulin in F11-derived neurons (immunofluorescence, western blotting); assay type: cell-based; conditions: 24 h
IL-8/CINC1 = IL-8/CINC1 immunofluorescence of paw sections of oxaliplatin rats; assay type: in vivo, male Wistar rats; conditions: 30 mg/kg os, rat paw sections
Protocol: as §1, §2

human COX1 = molecular target: T1, human COX1 (Homo sapiens, UniProt P23219); experiment: COX1 assay, PGE2 formation from arachidonic acid, recombinant enzyme; assay type: biochemical
T1 construct: host or cells: Sf-9
Protocol: Protein binding in human, dog and rat plasma […]
in DMSO at a final concentration of 2 mM. […]
plasma to obtain a final concentration of 10 µM. Human, dog and rat plasma (200 µL) in triplicate […]
vials for LC-MS/MS analysis. […]
mM Tris-HCl (pH 8.0), 1.98 mM phenol and 1.02 µM hematine. Thereafter, the reaction was initiated by adding 4 µM (COX1) or 2 µM (COX2) of arachidonic acid and the mixture was incubated for 5 min at RT. For basal control measurements, arachidonic acid was omitted from the reaction mixture. Following incubation, t he reaction was stopped by the addition of 1 M HCl then 1 M Tris/HCl (pH 8.0) followed by cooling to 4°C.
The fluorescence acceptor (d2 labeled PGE2) and the fluorescence donor (anti -PGE2 antibody labeled with europium Cryptate) were then added. After 120 min, the fluorescence transfer corresponding to the amount of residual PGE2 was measured at λex=337 nm, λem=620 nm and λem=665 nm using a microplate reader (Envision, Perkin Elmer). The enzyme activity was determined by dividing the signal measured at 665 nm by that measured at 620 nm (ratio). The results were expressed as a percent age inhibition of the control enzyme activity. The standard inhibitory reference compound was Diclofenac, which was tested in each experiment at several concentrations to obtain an inhibition curve from which its IC50 value was calculated. […]

PI3K/p-cortactin = PI3K/p-cortactin western blotting in F11-derived neurons; assay type: cell-based; conditions: 24 h
[3] = DF2726A 1 µM + oxaliplatin 20 µM

T1 sequence (P23219 24-599): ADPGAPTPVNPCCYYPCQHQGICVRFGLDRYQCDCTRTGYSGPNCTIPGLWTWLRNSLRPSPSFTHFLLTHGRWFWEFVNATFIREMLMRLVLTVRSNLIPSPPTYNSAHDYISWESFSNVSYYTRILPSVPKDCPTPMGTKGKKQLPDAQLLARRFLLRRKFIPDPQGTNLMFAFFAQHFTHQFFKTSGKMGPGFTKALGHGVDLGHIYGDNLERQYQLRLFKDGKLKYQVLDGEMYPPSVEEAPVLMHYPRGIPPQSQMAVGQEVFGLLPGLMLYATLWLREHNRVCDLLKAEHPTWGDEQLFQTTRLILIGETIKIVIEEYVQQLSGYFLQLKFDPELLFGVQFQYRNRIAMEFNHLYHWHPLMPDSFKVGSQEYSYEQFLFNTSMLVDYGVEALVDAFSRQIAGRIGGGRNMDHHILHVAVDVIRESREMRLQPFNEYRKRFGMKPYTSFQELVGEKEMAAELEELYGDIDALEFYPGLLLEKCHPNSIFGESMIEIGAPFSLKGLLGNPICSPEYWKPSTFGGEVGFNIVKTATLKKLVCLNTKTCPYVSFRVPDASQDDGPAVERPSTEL
CYP 2C19, sequence (P33261 whole entry): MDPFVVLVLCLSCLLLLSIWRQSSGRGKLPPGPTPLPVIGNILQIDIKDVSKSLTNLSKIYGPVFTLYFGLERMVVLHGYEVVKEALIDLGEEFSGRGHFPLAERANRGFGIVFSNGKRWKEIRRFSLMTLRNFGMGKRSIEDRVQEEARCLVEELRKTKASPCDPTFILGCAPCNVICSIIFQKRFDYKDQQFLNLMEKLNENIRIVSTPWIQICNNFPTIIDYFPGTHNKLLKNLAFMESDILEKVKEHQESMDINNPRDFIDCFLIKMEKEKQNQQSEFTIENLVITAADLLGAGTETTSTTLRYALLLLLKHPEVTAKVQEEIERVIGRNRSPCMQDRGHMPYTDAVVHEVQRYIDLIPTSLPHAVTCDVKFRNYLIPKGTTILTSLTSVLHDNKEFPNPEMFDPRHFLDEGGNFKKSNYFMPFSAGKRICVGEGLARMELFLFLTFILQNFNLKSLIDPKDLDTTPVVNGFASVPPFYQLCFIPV

Compound: CC(C)(C(=O)O)c1ccc(Nc2nc(C(F)(F)F)cs2)cc1 [DF2726A]
- Effect on oxaliplatin-induced loss of IENFs (PGP9.5) (IENFs (PGP9.5)): preventing the loss of epidermal innervation
- Metabolic stability rat (Metabolic stability, rat): 15.3 µL/min/10^6 cells
- Acetylated α-tubulin levels in nerve fibres of oxaliplatin rats (acetylated α-tubulin [1]): completely restored control conditions
- IC50 (CYP 2C19): > 30 µM
- Metabolic stability dog (Metabolic stability, dog): 7.2 µL/min/10^6 cells
- Acetylated α-tubulin in neurons treated with DF2726A alone (acetylated α-tubulin [2]; 1 µM, immunofluorescence): moderately present
- Acetylated α-tubulin in oxaliplatin-treated neurons, combination with DF2726A (acetylated α-tubulin [2]; [3]): counteracts chemotherapy-mediated effects; also recorded: comparable to that of control cells
- Acetylated α-tubulin in paclitaxel-treated neurons, combination with DF2726A (acetylated α-tubulin [2]; DF2726A + paclitaxel 10 nM): The same effect was observed; also recorded: comparable to that of control cells
- Effect on oxaliplatin-increased IL-8/CINC1 signalling in the dermis (IL-8/CINC1): significantly attenuated
- COX 1 Inhibition (50 µM) (human COX1): did not inhibit; also recorded: No Inhibition observed
- PI3K/p-cortactin expression, oxaliplatin-treated neurons (PI3K/p-cortactin; [3]): attenuated this effect
- PI3K/p-cortactin expression, paclitaxel-treated neurons (PI3K/p-cortactin; DF2726A + paclitaxel 10 nM): attenuated this effect
